{"source": "patent US20250388529A1", "about": "“N-Substituted Phenylalkylamines and Their Use as Therapeutic Agents” (priority 2023, published 2025)", "key": {"[1]": {"biological_target": "T1, HiBiT-5-HT2A (Homo sapiens, UniProt P28223)", "T1 construct": "expressed in transfected cells; host or cells: HEK293 (transient)", "T1 sequence (P28223 whole entry)": "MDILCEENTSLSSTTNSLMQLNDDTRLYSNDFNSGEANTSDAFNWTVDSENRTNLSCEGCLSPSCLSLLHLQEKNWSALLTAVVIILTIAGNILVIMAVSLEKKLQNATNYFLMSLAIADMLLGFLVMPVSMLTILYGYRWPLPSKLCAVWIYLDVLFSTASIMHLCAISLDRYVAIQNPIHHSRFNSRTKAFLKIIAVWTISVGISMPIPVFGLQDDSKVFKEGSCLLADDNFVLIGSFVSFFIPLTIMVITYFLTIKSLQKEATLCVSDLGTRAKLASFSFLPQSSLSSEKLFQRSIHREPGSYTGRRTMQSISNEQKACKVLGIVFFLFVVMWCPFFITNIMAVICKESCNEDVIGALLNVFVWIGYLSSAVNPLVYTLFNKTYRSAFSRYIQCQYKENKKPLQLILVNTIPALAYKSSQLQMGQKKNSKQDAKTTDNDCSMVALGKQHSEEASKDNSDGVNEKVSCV", "assay": "NanoBRET Target Engagement competitive displacement of […], HiBiT-5-HT2A transiently expressed in HEK293 cells", "details": "equilibrium competitive displacement, Cheng-Prusoff; read-out: KI (binding affinity) at 5-HT2A"}, "[2]": {"biological_target": "T1, HiBiT-5-HT2A", "assay": "NanoBRET kinetic measurement of ligand binding to HiBiT-5-HT2A (Motulsky-Mahan)"}, "[3]": {"biological_target": "human Nav1.1 (Homo sapiens, UniProt P35498)", "assay": "Manual whole-cell patch clamp sodium current recording, HEK cells stably expressing human Nav1.1", "format": "cell-based", "details": "10 μM", "method": "Cell lines: Human Embryonic Kidney (HEK) 293 cells stably expressing human VGSC a subunit Nav1.1 (GenBank accession number NP_008851.3) were a gift from Dr. Massimo Mantegazza. Human VGSC β1 subunit GenBank accession number NP_001028.1) cDNA was transfected into this line to generate a second, stable line. Cells were cultured in Dulbecco's Modified Eagle Medium containing (4.5 g/L D-glucose, L-glutamine, 110 mg/L sodium pyruvate, 200 μg/mL G418, 100 U/mL penicillin/streptomycin). All cells were maintained in an incubator at 37° C. with 5% CO2.\nManual Sodium Current Recording: Sodium current (INa) was measured at room temperature using the manual whole-cell patch clamp technique with previously described electrophysiological methods (Chen et al., J Biol Chem., 2012; 287 (46): 39061-39069). Cells were plated on 12 mm diameter clear glass poly-D-lysine coated coverslips (Neuvitro) and used for electrophysiological recordings within 48 hours after plating. Cells were identified with an AIR upright confocal microscope (Nikon). […] Data were acquired with a Digidata 1440A interface (Molecular Devices) and analyzed using pClamp10 offline. […] All manual whole-cell INa recorded under XOB conditions was conducted after 3.9 minutes of perfusion unless indicated otherwise."}, "[4]": {"test_system": "wildtype mouse prefrontal cortex layer V pyramidal neurons", "assay": "Brain slice current clamp recording of membrane properties and action potential firing", "format": "cell-based", "method": "Animals: Wildtype C57BL/6J mice were obtained from the Jackson Labs. Male and female pups, age postnatal day (P) 17-23, were used for the electrophysiological experiments. Animals were housed in the Unit for Laboratory Animal Medicine at the University of Michigan. All procedures were performed in accordance with the NIH and approved by the University of Michigan IACUC.\nBrain Slice Preparation: Acute brain slices were prepared as described previously (Hull et al., Ann Clin Transl Neur., 2020; 7 (11): 2137-2149). Briefly, mice were anesthetized with isoflurane anesthesia and decapitated. Brains were carefully removed from the skull and placed in ice-cold carbogen-aerated slice solution containing (in mM): 110 sucrose, 62.5 NaCl, 2.5 KCl, 6 MgCl2, 1.25 KH2PO4, 26 NaHCO3, 0.5 CaCl2), 20 D-glucose, pH 7.35-7.40. Brains were blocked and slices were cut using a vibrating microtome (Electron Microscopy Sciences) in 250 μm thick coronal sections from prefrontal cortex. Slices were incubated in an aerated holding chamber containing slice solution for 30 minutes at room temperature and then incubated in 1:1 slice: artificial cerebrospinal solution (ACSF) for 30 minutes at 35° C. ACSF contained in mM (125 NaCl; 2.5 KCl; 1 MgCl2; 1.25 KH2PO4; 26 NaHCO3; 2 CaCl2); and 20 D-glucose (pH 7.35-7.40). Slices were then aerated in a holding chamber containing 100% ACSF for at least 30 min at room temperature before recording.\nAction Potential Recording and Analysis: Individual brain slices were placed in an RC-26 recording chamber (Warner Instruments) and superfused with aerated ACSF at a flowrate of 2-3 mL/min equipped with an inline heater (Warner Instruments) to maintain the recording temperature at 33-35° C. Layer 5 pyramidal neurons were identified based on their large soma size, shape, and location using an AIR upright confocal microscope (Nikon) equipped with IR-DIC optics and a 40× water immersion objective. Only vertically oriented pyramidal cells were selected for recording. […] The junction potential was calculated to be 14.3 mV using the P-clamp junction potential calculator and all values presented in the study are uncorrected. Following break in at −94.3 mV in voltage clamp mode, the resting membrane potential was defined as the membrane potential in current clamp <10 s after initial break in for baseline or immediately after XOB perfusion. Repetitive action potential firing was elicited in whole-cell current clamp from the resting membrane potential in 1 s long current injections in 10 pA steps from −20 pA to +400 pA. There was a 1 s long 0 pA current injection between each sweep. Data were acquired at 20 kHz and were filtered at 10 kHz. Cells with an access resistance measured in voltage clamp >20 MΩ or RMP more depolarized than −64.3 mV were not used. Access resistance and pipette capacitance were compensated using bridge balance. Whole cell capacitance was measured using P-clamp whole cell capacitance compensation in voltage clamp with 10 mV depolarizing steps from −94.3 mV. Automated action potential (AP) quantification and analysis was performed using custom MATLAB (MathWorks) software. APs were defined as the voltage crossing 0 mV after a dV/dt>10 mV/ms, defined here as the AP threshold. Input resistance was calculated using Ohm's law with a −10 pA current injection from the resting membrane potential after 250 ms."}, "[5]": {"biological_target": "HiBiT-5-HT2C (Homo sapiens, UniProt P28335)", "sequence (P28335 33-458)": "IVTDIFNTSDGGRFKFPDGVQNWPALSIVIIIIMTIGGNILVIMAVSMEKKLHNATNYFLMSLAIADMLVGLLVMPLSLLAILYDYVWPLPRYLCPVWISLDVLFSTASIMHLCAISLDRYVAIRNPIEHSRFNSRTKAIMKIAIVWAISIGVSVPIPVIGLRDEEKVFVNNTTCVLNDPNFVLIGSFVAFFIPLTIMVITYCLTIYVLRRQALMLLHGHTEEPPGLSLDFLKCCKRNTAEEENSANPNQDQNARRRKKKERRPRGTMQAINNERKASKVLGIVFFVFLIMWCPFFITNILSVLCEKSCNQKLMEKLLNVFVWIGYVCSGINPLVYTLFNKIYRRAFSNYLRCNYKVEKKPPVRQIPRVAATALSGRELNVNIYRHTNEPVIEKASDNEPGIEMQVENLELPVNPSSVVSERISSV", "assay": "cell-based"}}, "note": "Where “and” joins values, the source holds several entries; their conditions need not be identical. Equal entries are not always repeated."}
{"smiles": "COc1cc(CCNCCCCCCOCCCCc2ccccc2)c(OC)cc1Br", "note": "[XOB, N-(4-bromo-2,5-dimethoxyphenethyl)-6-(4-phenylbutoxy)hexan-1-amine]", "values": [{"measurement": "Ki", "setting": "[1]", "value": "2.6 µM and 2 to 3 µM"}, {"measurement": "association rate at 5-HT2A relative to serotonin (in words)", "setting": "[2]", "value": "two orders of magnitude slower"}, {"measurement": "association rate at 5-HT2A, fold slower than serotonin", "setting": "[2]", "value": "about 24 fold"}, {"measurement": "original baseline INa density at 0 mV recovered after washout", "setting": "[3]; 10 minutes of washing out", "value": "17.5±3.64", "unit": "%"}, {"measurement": "reduction of mean Nav1.1 peak INa density at 0 mV compared to baseline", "setting": "[3]; acute perfusion, three cells", "value": "94.1±1.31", "unit": "%"}, {"measurement": "First AP Max dv/dt", "setting": "[4]; 10 μM", "value": "402.68±46.20 mV/ms and 402.68 mV/ms"}, {"measurement": "First AP Min dv/dt", "setting": "[4]; 10 μM", "value": "−91.32±8.95", "unit": "mV/ms"}, {"measurement": "First AP Peak Amplitude", "setting": "[4]; 10 μM", "value": "41.21±2.92 mV and 41.21 ± 2.29 mV"}, {"measurement": "First AP Threshold", "setting": "[4]; 10 μM", "value": "−38.43±1.23", "unit": "mV"}, {"measurement": "Input Resistance", "setting": "[4]; 10 μM", "value": "100.08±30.18", "unit": "MΩ"}, {"measurement": "Max Firing Rate @ 300 pA", "setting": "[4]; 10 μM", "value": "12.25 ± 1.53", "unit": "Hz"}, {"measurement": "Max Firing Rate @ 400 pA", "setting": "[4]; 10 μM", "value": "14±1.82", "unit": "Hz"}, {"measurement": "Resting Vm", "setting": "[4]; 10 μM", "value": "−63.25±1.15", "unit": "mV"}, {"measurement": "Spike Width", "setting": "[4]; 10 μM", "value": "0.76 ± 0.06", "unit": "ms"}, {"measurement": "depolarization of the resting membrane potential", "setting": "[4]; 10 μM vs baseline", "value": "+8.45±1.15 mV"}, {"measurement": "reduction in maximum firing frequency at 400 pA current injections", "setting": "[4]; 10 μM vs baseline", "value": "~12", "unit": "Hz"}, {"measurement": "Ki", "setting": "[5]", "value": "> 10", "unit": "µM"}]}
